The source of these data is patent US20100137303A1, “NEW COMPOUND 255” (AstraZeneca AB, priority 2008, published 2010).

Values after ≈ are worked out from the molar mass of the structure shown.

One assay has as its system M. tuberculosis. Kind of assay: Mycobacteria susceptibility testing, Microplate Alamar Blue Assay, Mtu MIC. It is filed as cell-based, Mycobacterium tuberculosis (Mtu). The conditions noted are these: for MIC: Mycobacterium tuberculosis.
The next assay has as its system Spn548. Kind of assay: Bacterial susceptibility testing in liquid media, Spn548 MIC. Particulars: Streptococcus pneumoniae, 24 h, read-out: Spn548 Mean MIC.
A further assay concerns Eco-tolC. Briefly: Bacterial susceptibility testing in liquid media, Eco-tolC MIC. The conditions noted are these: for MIC: Escherichia coli, read-out: Eco-tolC MIC.
Another assay concerns the target T1, Msm. GyrB (Mycolicibacterium smegmatis, UniProt A0QNE0).
T1 construct: 15 nM Msm; GyrB, 650 μM ATP, and compound in dimethyl sulfoxide
Briefly: Msmegmatis GyrB enzyme assay (ATPase, malachite green phosphate detection). It is filed as biochemical. The conditions noted are these: read-out: Msm_GyrB IC50. As for the experimental part:
Compounds may be tested for inhibition of GyrB ATPase activity using an ammonium molybdate/malachite green-based phosphate detection assay (Lanzetta, P. A., L. J. Alvarez, P. S. Reinach, and O. A. Candia, 1979, 100: 95-97; Innova Biosciences malachite green detection kit). Assays can be performed in multi-well plates in 50 μl reactions containing: 50 mM HEPES buffer pH 7.7, 250 mM potassium glutamate, 200 mM potassium chloride, 2 mM magnesium chloride, 2% glycerol, 1 mM 1,4-Dithio-DL-threitol, 0.005% Brij-35, 15 nM Msm. GyrB, 650 μM ATP, and compound in dimethyl sulfoxide. Reactions can be quenched with 12.5 μl of ammonium molybdate/malachite green detection reagent (Pi color lock gold & accelerator mix; Innova Biosciences), followed by the addition of 5 μl of stabilizer (Innova Biosciences) after 5 min of incubation.

T1 sequence (A0QNE0 whole entry): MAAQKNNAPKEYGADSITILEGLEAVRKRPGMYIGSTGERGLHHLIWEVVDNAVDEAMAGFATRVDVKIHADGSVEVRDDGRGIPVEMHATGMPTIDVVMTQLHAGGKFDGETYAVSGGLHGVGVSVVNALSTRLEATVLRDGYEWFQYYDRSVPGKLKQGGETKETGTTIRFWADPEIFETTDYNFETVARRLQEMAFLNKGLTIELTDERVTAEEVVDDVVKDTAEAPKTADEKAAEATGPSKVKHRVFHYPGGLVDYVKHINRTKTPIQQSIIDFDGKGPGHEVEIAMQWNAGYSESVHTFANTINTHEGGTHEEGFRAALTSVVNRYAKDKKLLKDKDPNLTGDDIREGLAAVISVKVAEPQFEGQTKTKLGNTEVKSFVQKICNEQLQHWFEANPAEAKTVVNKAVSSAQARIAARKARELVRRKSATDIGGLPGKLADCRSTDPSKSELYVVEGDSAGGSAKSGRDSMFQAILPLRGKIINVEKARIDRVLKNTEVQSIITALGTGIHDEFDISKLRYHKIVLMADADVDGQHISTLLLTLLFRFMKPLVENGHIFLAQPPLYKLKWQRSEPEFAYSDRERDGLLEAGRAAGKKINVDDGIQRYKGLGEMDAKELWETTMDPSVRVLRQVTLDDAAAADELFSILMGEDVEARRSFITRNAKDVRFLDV
Description for Eco-tolC: (§1) Compounds may be tested for antimicrobial activity by susceptibility testing in liquid media. Compounds may be dissolved in dimethylsulfoxide and tested in 10 doubling dilutions in the susceptibility assays. The organisms used in the assay may be grown overnight on suitable agar media and then suspended in a liquid medium appropriate for the growth of the organism. The suspension can be a 0.5 McFarland and a further 1 in 10 dilution can be made into the same liquid medium to prepare the final organism suspension in 100 μL. Plates can be incubated under appropriate conditions at 37° C. for 24 hrs prior to reading.
Description for Spn548: as §1

As to `CCNC(=O)Nc1nc2cc(-c3cncnc3)c(OCC3CCOC3)nc2s1` (single isomer, unassigned; isomer 1) [Example 68, 1-ethyl-3-[6-pyrimidin-5-yl-5-(tetrahydrofuran-3-ylmethoxy)[1,3]thiazolo[5,4-b]pyridin-2-yl]urea (Chiral isomer 1)], the figures for the MIC in the assay with M. tuberculosis, with Spn548 and in the assay with Eco-tolC were 0.0884 µg/mL (≈ 0.221 µM), 0.125 µg/mL (≈ 0.312 µM) and 0.5 µg/mL (≈ 1.25 µM), respectively.
On to `CCNC(=O)Nc1nc2cc(-c3cncnc3)c(OCC3CCOC3)nc2s1` (single isomer, unassigned; isomer 2) [Example 69, 1-ethyl-3-[6-pyrimidin-5-yl-5-(tetrahydrofuran-3-ylmethoxy)[1,3]thiazolo[5,4-b]pyridin-2-yl]urea (Chiral isomer 2)], for which the “Mtu MIC” value in the assay on M. tuberculosis was determined as 0.08839 µg/mL. In addition, the “Eco-tolC MIC” value in the assay with Eco-tolC was 0.25 µg/mL.
As for `C=CCNC(=O)Nc1nc2cc(Cl)cnc2s1` [Example 1, 1-Allyl-3-(6-chloro-thiazolo [5,4-b]pyridin-2-yl)-urea], on Msm. GyrB, the half-inhibitory concentration (IC50) came to 191 nM. Besides, the minimum inhibitory concentration (MIC) with M. tuberculosis was found to be 16 µg/mL (≈ 59.5 µM); with Spn548, 8 µg/mL (≈ 29.8 µM); in the assay with Eco-tolC it was 16 µg/mL (≈ 59.5 µM).
Regarding `C=CCNC(=O)Nc1nc2cc(Br)c(C)nc2s1` [Example 2, 1-Allyl-3-(6-bromo-5-methyl-thiazolo [5,4-b]pyridin-2-yl)-urea], the IC50 on Msm. GyrB was found to be 2190 nM. The MIC was > 32 µg/mL in the assay on Spn548 and 32 µg/mL (≈ 97.8 µM) in the assay with Eco-tolC.
Turning to `C=CCNC(=O)Nc1nc2cc(-c3cccnc3)cnc2s1` [Example 3, 1-allyl-3-[6-(3-pyridyl)thiazolo [5,4-b]pyridin-2-yl] urea], the minimum inhibitory concentration (MIC) is 10.1 µg/mL (≈ 32.4 µM) with M. tuberculosis, 1 µg/mL (≈ 3.21 µM) in the assay on Spn548 and > 64 µg/mL in the assay on Eco-tolC.
Take `CCNC(=O)Nc1nc2cc(-c3cnc(OC)nc3)cnc2s1` [Example 4, 1-ethyl-3-[6-(2-methoxypyrimidin-5-yl)thiazolo [5,4-b]pyridin-2-yl] urea]: the IC50 at Msm. GyrB was found to be 140 nM. Besides, the MIC was > 8 µg/mL in the assay with M. tuberculosis, 0.5 µg/mL (≈ 1.51 µM) with Spn548 and > 64 µg/mL in the assay on Eco-tolC.
On to `CCNC(=O)Nc1nc2cc(-c3cccnc3)cnc2s1` [Example 5, 1-Ethyl-3-(6-pyridin-3-yl-thiazolo [5,4-b]pyridin-2-yl)-urea], for which the MIC was 1.56 µg/mL (≈ 5.21 µM) in the assay on Spn548 and 8.83 µg/mL (≈ 29.5 µM) in the assay with Eco-tolC.
Consider `C=CCNC(=O)Nc1nc2cc(-c3cncnc3)c(C)nc2s1` [Example 6, 1-Allyl-3-(5-methyl-6-pyrimidin-5-yl-thiazolo [5,4-b]pyridin-2-yl)-urea], for which the 50% inhibitory concentration (IC50) on Msm. GyrB came out at 151 nM. The minimum inhibitory concentration (MIC) with M. tuberculosis is 8 µg/mL (≈ 24.5 µM); in the assay on Spn548 it was 1.01 µg/mL (≈ 3.09 µM); with Eco-tolC it was 32.3 µg/mL (≈ 99 µM).
The like results for `C=CCNC(=O)Nc1nc2cc(-c3cnc(OC)nc3)c(C)nc2s1` [Example 7, 1-Allyl-3-[6-(2-methoxy-pyrimidin-5-yl)-5-methyl-thiazolo [5,4-b]pyridin-2-yl]-urea] were, in that order, 239 nM, 32 µg/mL (≈ 89.8 µM), 0.0625 µg/mL (≈ 0.175 µM) and > 32 µg/mL.
The like results for `C=CCNC(=O)Nc1nc2cc(-c3cncc(C(=O)OCC)c3)c(C)nc2s1` [Example 8, 5-[2-(3-Allyl-ureido)-5-methyl-thiazolo [5,4-b]pyridin-6-yl]-nicotinic acid ethyl ester] were, in that order, 151 nM, > 32 µg/mL, > 39.8 µg/mL and > 39.8 µg/mL.
On to `C=CCNC(=O)Nc1nc2cc(-c3cccnc3)c(OCCN3CCOCC3)nc2s1` [Example 28, 1-[5-(2-morpholin-4-ylethoxy)-6-pyridin-3-yl[1,3]thiazolo[5,4-b]pyridin-2-yl]-3-prop-2-en-1-ylurea], for which the results for the MIC with M. tuberculosis, with Spn548 and in the assay on Eco-tolC were > 22.6 µg/mL, 4 µg/mL (≈ 9.08 µM) and > 32 µg/mL, respectively.
The like results for `C=CCNC(=O)Nc1nc2cc(-c3cccnc3)c(OCCOC)nc2s1` [Example 29, 1-[5-(2-methoxyethoxy)-6-pyridin-3-yl[1,3]thiazolo[5,4-b]pyridin-2-yl]-3-prop-2-en-1-ylurea] were, in that order, 4 µg/mL (≈ 10.4 µM), 0.152 µg/mL (≈ 0.395 µM) and 1.22 µg/mL (≈ 3.16 µM).
For `CCNC(=O)Nc1nc2cc(-c3cncnc3)c(OCC3CCOC3)nc2s1` (stereo not shown) [Example 36, 1-ethyl-3-[6-pyrimidin-5-yl-5-(tetrahydrofuran-3-ylmethoxy)[1,3]thiazolo[5,4-b]pyridin-2-yl]urea] the same measures were 0.0544 µg/mL (≈ 0.136 µM), 0.0625 µg/mL (≈ 0.156 µM) and 0.125 µg/mL (≈ 0.312 µM).
For `CCNC(=O)Nc1nc2cc(-c3ccc(F)nc3)c(OCC3CCOC3)nc2s1` (stereo not shown) [Example 40, 1-ethyl-3-[6-(6-fluoropyridin-3-yl)-5-(tetrahydrofuran-3-ylmethoxy)[1,3]thiazolo[5,4-b]pyridin-2-yl]urea] the same measures were 0.354 µg/mL (≈ 0.847 µM), 0.0714 µg/mL (≈ 0.171 µM) and 0.571 µg/mL (≈ 1.37 µM).
For the molecule `CCNC(=O)Nc1nc2cc(-c3cccnc3)c(OCC3CCOC3)nc2s1` (stereo not shown) [Example 42, 1-ethyl-3-[6-pyridin-3-yl-5-(tetrahydrofuran-3-ylmethoxy)[1,3]thiazolo[5,4-b]pyridin-2-yl]urea], the MIC in the assay on M. tuberculosis came to 0.42 µg/mL (≈ 1.05 µM); with Spn548, 0.078 µg/mL (≈ 0.195 µM); in the assay on Eco-tolC, 1.25 µg/mL (≈ 3.12 µM).
The like results for `CCNC(=O)Nc1nc2cc(-c3cncnc3)c(OCCOC)nc2s1` [Example 44, 1-ethyl-3-[5-(2-methoxyethoxy)-6-pyrimidin-5-yl[1,3]thiazolo[5,4-b]pyridin-2-yl]urea] were, in that order, 0.25 µg/mL (≈ 0.668 µM), 0.0731 µg/mL (≈ 0.195 µM) and 1.17 µg/mL (≈ 3.12 µM).
Turning to `CCNC(=O)Nc1nc2cc(-c3cccnc3)c(OCCOC)nc2s1` [Example 45, 1-ethyl-3-[5-(2-methoxyethoxy)-6-pyridin-3-yl[1,3]thiazolo[5,4-b]pyridin-2-yl]urea], the minimal inhibitory concentration (MIC) was 1 µg/mL (≈ 2.68 µM) against M. tuberculosis, 0.292 µg/mL (≈ 0.781 µM) in the assay on Spn548 and 4.67 µg/mL (≈ 12.5 µM) with Eco-tolC.
Consider `CCNC(=O)Nc1nc2cc(-c3ccc(C#N)nc3)c(OCC3CCOC3)nc2s1` (stereo not shown) [Example 54, 1-[6-(6-cyanopyridin-3-yl)-5-(tetrahydrofuran-3-ylmethoxy)[1,3]thiazolo[5,4-b]pyridin-2-yl]-3-ethylurea], for which the results for the MIC against M. tuberculosis, in the assay on Spn548 and in the assay with Eco-tolC were 0.177 µg/mL (≈ 0.417 µM), 0.0625 µg/mL (≈ 0.147 µM) and 1 µg/mL (≈ 2.36 µM), respectively.
Regarding `CCNC(=O)Nc1nc2cc(-c3cncc(C#N)c3)c(OCC3CCOC3)nc2s1` (stereo not shown) [Example 57, 1-[6-(5-cyanopyridin-3-yl)-5-(tetrahydrofuran-3-ylmethoxy)[1,3]thiazolo[5,4-b]pyridin-2-yl]-3-ethylurea], the MIC in the assay with M. tuberculosis was 0.25 µg/mL (≈ 0.589 µM); in the assay with Spn548, 0.0625 µg/mL (≈ 0.147 µM); with Eco-tolC, 0.0625 µg/mL (≈ 0.147 µM).
In the case of `CCNC(=O)Nc1nc2cc(-c3cnn(C)c3)c(OCC3CCOC3)nc2s1` (stereo not shown) [Example 71, 1-ethyl-3-[6-(1-methyl-1H-pyrazol-4-yl)-5-(tetrahydrofuran-3-ylmethoxy)[1,3]thiazolo[5,4-b]pyridin-2-yl]urea], the MIC is 0.707 µg/mL (≈ 1.76 µM) against M. tuberculosis, 0.125 µg/mL (≈ 0.311 µM) with Spn548 and 0.5 µg/mL (≈ 1.24 µM) with Eco-tolC.
As to `CCNC(=O)Nc1nc2cc(-c3cncnc3)c(OC(C)C)nc2s1` [Example 73, 1-ethyl-3-[5-(1-methylethoxy)-6-pyrimidin-5-yl[1,3]thiazolo[5,4-b]pyridin-2-yl]urea], the IC50 at Msm. GyrB was determined as 5.2 nM. Besides, the minimal inhibitory concentration (MIC) in the assay with M. tuberculosis was 0.125 µg/mL (≈ 0.349 µM).
For the molecule `CCNC(=O)Nc1nc2cc(-c3ccc(F)nc3)c(OC(C)C)nc2s1` [Example 74, 1-ethyl-3-[6-(6-fluoropyridin-3-yl)-5-(1-methylethoxy)[1,3]thiazolo[5,4-b]pyridin-2-yl]urea], the IC50 at Msm. GyrB is 10 nM. In the assay with M. tuberculosis, this molecule registered an MIC of 1 µg/mL (≈ 2.66 µM).
On to `CCNC(=O)Nc1nc2cc(-c3cnc(C#N)nc3)c(OC3CCOC3)nc2s1` (stereo not shown) [Example 75, 1-[6-(2-cyanopyrimidin-5-yl)-5-(tetrahydrofuran-3-yloxy)[1,3]thiazolo[5,4-b]pyridin-2-yl]-3-ethylurea], for which, on Msm. GyrB, the IC50 is < 2.54 nM. Moreover, the MIC against M. tuberculosis was < 0.06 µg/mL.
Take `CCNC(=O)Nc1nc2cc(-c3ccc(F)nc3)c(OC3CCOC3)nc2s1` (stereo not shown) [Example 76, 1-ethyl-3-[6-(6-fluoropyridin-3-yl)-5-(tetrahydrofuran-3-yloxy)[1,3]thiazolo[5,4-b]pyridin-2-yl]urea]: the IC50 at Msm. GyrB was determined as 3.54 nM. This molecule also gave an MIC in the assay with M. tuberculosis of 0.5 µg/mL (≈ 1.24 µM).
`CCNC(=O)Nc1nc2cc(-c3cnc(C(F)(F)F)nc3)c(OCC3CCOC3)nc2s1` (stereo not shown) [Example 77, 1-ethyl-3-{5-(tetrahydrofuran-3-ylmethoxy)-6-[2-(trifluoromethyl)pyrimidin-5-yl][1,3]thiazolo[5,4-b]pyridin-2-yl}urea]: the IC50 at Msm. GyrB was found to be 2.9 nM. Inhibition of growth in the assay on M. tuberculosis (MIC) required 2.83 µg/mL (≈ 6.04 µM).
For `CCNC(=O)Nc1nc2cc(-c3cncc(-c4n[nH]c(=O)o4)c3)c(OCC3CCOC3)nc2s1` (stereo not shown) [Example 78, 1-ethyl-3-{6-[5-(5-oxo-4,5-dihydro-1,3,4-oxadiazol-2-yl)pyridin-3-yl]-5-(tetrahydrofuran-3-ylmethoxy)[1,3]thiazolo[5,4-b]pyridin-2-yl}urea] the same measures were < 2.54 nM and 8 µg/mL (≈ 16.5 µM).
In the assay on M. tuberculosis, `CCNC(=O)Nc1nc2cc(-c3cncc(F)c3)c(OCC3CCOC3)nc2s1` (stereo not shown) [Example 79, 1-ethyl-3-[6-(5-fluoropyridin-3-yl)-5-(tetrahydrofuran-3-ylmethoxy)[1,3]thiazolo[5,4-b]pyridin-2-yl]urea] came in with an MIC of 0.354 µg/mL (≈ 0.847 µM).
